Among the data in US20260078120A1, “SUBSTITUTED PYRIDOPYRIMIDINONES” (MIRATI THERAPEUTICS, INC., priority 2022, published 2026) are IC50 values, retold here.

Holding throughout (format): cell-based
In assay [1] the test system is SKBR3 (PI3Kα wild type) cells. Put plainly: CellTiter-Glo 2.0 luminescent cell viability assay, 72 hours, SKBR3 cells. The following applies: Homo sapiens, SK-BR-3, 72 h, SKBR3 (PI3Kα wild type) cells, CellTiter-Glo, approximately 72 hours; read-out: SKBR3 (WT) Viability IC50. In outline:
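Viability measured via CTG luminescence following roughly 72 hours of compound exposure at 37° C. Dosing used a 10 um starting concentration diluted 1:4 over 10 points; percent-of-vehicle data fitted with a variable-slope four-parameter model for IC50.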

Assay [2] concerns T47D (PI3Kα H1047R mutant) cells. The assay can be described thus: CellTiter-Glo 2.0 luminescent cell viability assay, 72 hours, T47D cells. The following applies: Homo sapiens, T47D, 72 h, T47D (PI3Kα H1047R mutant) cells, CellTiter-Glo, approximately 72 hours; read-out: T47D (H1047R mutant) Viability IC50. In outline: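 Cells seeded at 1000 per well overnight were dosed with a 10-concentration, 1:4 series starting at 10 µM and incubated ~72 h at 37° C. Viability was read by CellTiter-Glo 2.0 luminescence after 30 min at room temperature. IC50 came from four-parameter fits of percent vehicle control.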
Background: ATP-based viability assays read luminescence as a measure of living cells.

For assay [3] the test system is unchanged. Put plainly: Inhibition of pAKT formation, alphaLISA SureFire Ultra AKT 1/2/3 (pS473), T47D cells. The settings on record: Homo sapiens, T47D, T47D (PI3Kα H1047R mutant) cells; inhibition of pAKT (pS473) formation; approximately one hour or 24 hours treatment; read-out: T47D pAKT (H1047R mutant) IC50. A digest of the protocol: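 T47D cells (12,000/well) in HBSS were dosed with compound at 10 concentrations (10.4 μM top, 1:4 dilutions) for about 1 h or 24 h at 37 °C, then lysed. pS473 AKT was read by alphaLISA. Signals were normalized to alpelisib and DMSO controls, and IC50 came from a four-parameter fit.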
A general note: In Alpha technology, singlet oxygen from a donor bead excites a nearby acceptor bead.

Usually IC50 stands for the concentration needed to halve the response being measured.

As for `Cc1cc([C@@H](C)Nc2ccccc2C(=O)O)c2nc(N3CCN(c4ccccn4)CC3)c(C)c(=O)n2c1` [Example 10-34, (R)-2-((1-(3,7-dimethyl-4-oxo-2-(4-(pyridin-2-yl)piperazin-1-yl)-4H-pyrido[1,2-a]pyrimidin-9-yl)ethyl)amino)benzoic acid], the IC50 in assay [1] was > 10 µM; in assay [2], 56.6 nM; in assay [3], 1.38 nM.
For `Cc1cc([C@@H](C)Nc2ccccc2C(=O)O)c2nc(N3CCN(c4ccc(C#N)cc4)[C@@H](C)C3)c(C)c(=O)n2c1` [Example 10-21, 2-(((R)-1-(2-((S)-4-(4-cyanophenyl)-3-methylpiperazin-1-yl)-3,7-dimethyl-4-oxo-4H-pyrido[1,2-a]pyrimidin-9-yl)ethyl)amino)benzoic acid] the same measures were 8.07 µM, 45.8 nM and 2.34 nM.
Take `Cc1cc([C@@H](C)Nc2ccc(Cl)nc2C(=O)O)c2nc(NCC3CC3)c(C)c(=O)n2c1` [Example 10-85, (R)-6-chloro-3-((1-(2-((cyclopropylmethyl)amino)-3,7-dimethyl-4-oxo-4H-pyrido[1,2-a]pyrimidin-9-yl)ethyl)amino)picolinic acid]: the values for the IC50 in assay [1], in assay [2] and in assay [3] were > 10 µM, 79.5 nM and 2 nM, respectively.
In the case of `C[C@@H](Nc1ccccc1C(=O)O)c1cc(F)cn2c(=O)c(C#N)c(N3CCC(F)(F)CC3)nc12` [Example 10-25, (R)-2-((1-(3-cyano-2-(4,4-difluoropiperidin-1-yl)-7-fluoro-4-oxo-4H-pyrido[1,2-a]pyrimidin-9-yl)ethyl)amino)benzoic acid], the IC50 in assay [1] was > 10 µM; in assay [2], 49.6 nM; in assay [3], 4.69 nM.
For `Cc1cc([C@@H](C)Nc2ccccc2C(=O)O)c2nc(N3CCC4(CC4)C(F)(F)C3)c(C#N)c(=O)n2c1` [Example 10-108, (R)-2-((1-(3-cyano-2-(4,4-difluoro-6-azaspiro[2.5]octan-6-yl)-7-methyl-4-oxo-4H-pyrido[1,2-a]pyrimidin-9-yl)ethyl)amino)benzoic acid], the figures for the IC50 in assay [1], in assay [2] and in assay [3] were > 10 µM, 93.6 nM and 2.89 nM, respectively.
On to `Cc1cc([C@@H](C)Nc2ccccc2C(=O)O)c2nc(N3CCC(F)(F)[C@H](C)C3)c(C)c(=O)n2c1` [Example 10-126, 2-(((R)-1-(2-((R)-4,4-difluoro-3-methylpiperidin-1-yl)-3,7-dimethyl-4-oxo-4H-pyrido[1,2-a]pyrimidin-9-yl)ethyl)amino)benzoic acid], for which the values for the half-inhibitory concentration (IC50) in assay [1], in assay [2] and in assay [3] were > 10 µM, 109 nM and 2.64 nM, respectively.
Take `Cc1cc([C@@H](C)Nc2ccccc2C(=O)O)c2nc(N3CCN(c4ccccc4)CC3)c(C#N)c(=O)n2c1` [Example 10-98, (R)-2-((1-(3-cyano-7-methyl-4-oxo-2-(4-phenylpiperazin-1-yl)-4H-pyrido[1,2-a]pyrimidin-9-yl)ethyl)amino)benzoic acid]: the values for the IC50 in assay [1], in assay [2] and in assay [3] were > 10 µM, 85.8 nM and 2.12 nM, respectively.
`Cc1cc([C@@H](C)Nc2ccccc2C(=O)O)c2nc(N3CCN(c4ccc(F)cc4)CC3)c(C)c(=O)n2c1` [Example 10-36, (R)-2-((1-(2-(4-(4-fluorophenyl)piperazin-1-yl)-3,7-dimethyl-4-oxo-4H-pyrido[1,2-a]pyrimidin-9-yl)ethyl)amino)benzoic acid]: the IC50 in assay [1] is > 10 µM; in assay [2], 57 nM; in assay [3], 3.8 nM.
On to `Cc1cc([C@@H](C)Nc2ccccc2C(=O)O)c2nc(N3CCN(C(=O)C4CCCC4)CC3)c(C)c(=O)n2c1` [Example 10-84, (R)-2-((1-(2-(4-(cyclopentanecarbonyl)piperazin-1-yl)-3,7-dimethyl-4-oxo-4H-pyrido[1,2-a]pyrimidin-9-yl)ethyl)amino)benzoic acid], for which the values for the IC50 in assay [1], in assay [2] and in assay [3] were > 10 µM, 79 nM and 2.98 nM, respectively.
Take `Cc1cc([C@@H](C)Nc2ccccc2C(=O)O)c2nc(NC3CC(F)(F)C3)c(C#N)c(=O)n2c1` [Example 10-37, (R)-2-((1-(3-cyano-2-((3,3-difluorocyclobutyl)amino)-7-methyl-4-oxo-4H-pyrido[1,2-a]pyrimidin-9-yl)ethyl)amino)benzoic acid]: the figures for the IC50 in assay [1], in assay [2] and in assay [3] were > 10 µM, 57.4 nM and 2.19 nM, respectively.
As for `Cc1cc([C@@H](C)Nc2ccc(C)nc2C(=O)O)c2nc(NC3CCC3)c(C#N)c(=O)n2c1` [Example 10-115, (R)-3-((1-(3-cyano-2-(cyclobutylamino)-7-methyl-4-oxo-4H-pyrido[1,2-a]pyrimidin-9-yl)ethyl)amino)-6-methylpicolinic acid], the IC50 in assay [1] is > 10 µM; in assay [2], 98.8 nM; in assay [3], 58.4 nM.
Turning to `Cc1cc([C@@H](C)Nc2ccccc2C(=O)O)c2nc(N3CC(C)C(F)(F)C3)c(C#N)c(=O)n2c1` (stereo partly drawn) [Example 10-44, 2-(((1R)-1-(3-cyano-2-(3,3-difluoro-4-methylpyrrolidin-1-yl)-7-methyl-4-oxo-4H-pyrido[1,2-a]pyrimidin-9-yl)ethyl)amino)benzoic acid], the values for the IC50 in assay [1], in assay [2] and in assay [3] were 5.03 µM, 62.5 nM and 1.47 nM, respectively.
Take `Cc1cc([C@@H](C)Nc2ccccc2C(=O)O)c2nc(N3CC[C@H]3C)c(C#N)c(=O)n2c1` (single isomer, unassigned) [Example 10-96]: the IC50 in assay [1] is > 10 µM; in assay [2] it was 84.4 nM; in assay [3], 0.905 nM.
Consider `Cc1cc([C@@H](C)Nc2ccccc2C(=O)O)c2nc(N3CCC(F)(F)[C@@H]3C)c(C#N)c(=O)n2c1` [Example 10-31, 2-(((R)-1-(3-cyano-2-((S)-3,3-difluoro-2-methylpyrrolidin-1-yl)-7-methyl-4-oxo-4H-pyrido[1,2-a]pyrimidin-9-yl)ethyl)amino)benzoic acid], for which the IC50 in assay [1] was > 10 µM; in assay [2] it was 55.1 nM; in assay [3], 6.39 nM.
Regarding `Cc1cc([C@@H](C)Nc2ccccc2C(=O)O)c2nc(N3CCN(CC(F)F)CC3)c(C)c(=O)n2c1` [Example 10-91, (R)-2-((1-(2-(4-(2,2-difluoroethyl)piperazin-1-yl)-3,7-dimethyl-4-oxo-4H-pyrido[1,2-a]pyrimidin-9-yl)ethyl)amino)benzoic acid], the values for the IC50 in assay [1], in assay [2] and in assay [3] were > 10 µM, 82.5 nM and 2.55 nM, respectively.
With `Cc1cc([C@@H](C)Nc2ccccc2C(=O)O)c2nc(N3CCN(c4nccs4)CC3)c(C)c(=O)n2c1` [Example 10-33, (R)-2-((1-(3,7-dimethyl-4-oxo-2-(4-(thiazol-2-yl)piperazin-1-yl)-4H-pyrido[1,2-a]pyrimidin-9-yl)ethyl)amino)benzoic acid], the half-inhibitory concentration (IC50) was > 10 µM in assay [1], 56.5 nM in assay [2] and 2.19 nM in assay [3].
On to `Cc1cc([C@@H](C)Nc2ccccc2C(=O)O)c2nc(N3Cc4ccccc4C3)c(C#N)c(=O)n2c1` [Example 10-43, (R)-2-((1-(3-cyano-2-(isoindolin-2-yl)-7-methyl-4-oxo-4H-pyrido[1,2-a]pyrimidin-9-yl)ethyl)amino)benzoic acid], for which the IC50 is > 10 µM in assay [1], 62.2 nM in assay [2] and 2.52 nM in assay [3].
